We go through 28 compounds from patent publication US8859574B2 (IRM LLC, priority 2008, dated 2014).

Each structure is given as a SMILES string. pIC50: −log10 of the molar value.

The target of this test is T1, IGF-1R Ba/F3 (Homo sapiens, UniProt P08069).
T1 construct: fused on or other part: TEL- (or BCR-) IGF-1R in Ba/F3: the kinase part holds the site
T1 sequence (P08069 999-1274 limits assumed): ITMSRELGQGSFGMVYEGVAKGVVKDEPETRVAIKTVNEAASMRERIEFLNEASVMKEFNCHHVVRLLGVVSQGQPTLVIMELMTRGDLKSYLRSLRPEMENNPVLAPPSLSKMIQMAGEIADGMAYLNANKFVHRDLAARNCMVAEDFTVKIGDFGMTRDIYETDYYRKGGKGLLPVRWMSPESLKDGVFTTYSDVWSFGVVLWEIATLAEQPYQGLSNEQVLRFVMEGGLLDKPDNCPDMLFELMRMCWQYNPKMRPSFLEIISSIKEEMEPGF
As to the kind of experiment: Ba/F3 Cell Viability Inhibition Assay (IGF-1R Ba/F3). It counts as cell-based, murine. The settings on record: Tel-TK transformed Ba/F3 cells, 48 hours, Britelite luminescence. The procedure, abridged: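 IL-3-independent murine Ba/F3 cells transformed with a TEL/BCR-fused IGF-1R kinase were seeded at 3750 cells/well and exposed to serially diluted compound for 48 h at 37 °C. Viability was read by Britelite luminescence. IC50 is the concentration giving 50% of DMSO-control viability, from a logistic fit.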
As for `Cc1cc(Nc2nc(Nc3cc(C)c(C4CCN(C(=O)[C@H]5C[C@@H](O)CN5C)CC4)cc3C)ncc2Cl)n[nH]1` [Compound 123, (4-(4-(5-chloro-4-(5-methyl-1H-pyrazol-3-ylamino)pyrimidin-2-ylamino)-2,5-dimethylphenyl)piperidin-1-yl)((2R,4R)-4-hydroxy-1-methylpyrrolidin-2-yl)methanone], the pIC50 is 7.32.

In the case of `Cc1cc(Nc2nc(Nc3cc(C)c(C4CCN(C(=O)N(C)C)CC4)cc3C)ncc2Cl)n[nH]1` [Compound 70, 4-(4-(5-chloro-4-(5-methyl-1H-pyrazol-3-ylamino)pyrimidin-2-ylamino)-2,5-dimethylphenyl)-N,N-dimethylpiperidine-1-carboxamide], the pIC50 was 8.22. For `Cc1cc(Nc2nc(Nc3cc(C)c(C4CCNCC4)cc3F)ncc2C(F)(F)F)n[nH]1` [Compound 4, N2-(2-fluoro-5-methyl-4-(piperidin-4-yl)phenyl)-N4-(5-methyl-1H-pyrazol-3-yl)-5-(trifluoromethyl)pyrimidine-2,4-diamine] the value was 6.82; for `Cc1cc(Nc2nc(Nc3cc(C)c(C4CCN(C(=O)c5nc(C)oc5C(F)(F)F)CC4)cc3F)ncc2Cl)n[nH]1` [Compound 141, (4-(4-(5-chloro-4-(5-methyl-1H-pyrazol-3-ylamino)pyrimidin-2-ylamino)-5-fluoro-2-methylphenyl)piperidin-1-yl)(2-methyl-5-(trifluoromethyl)oxazol-4-yl)methanone], 7.16; for `Cc1cc(Nc2nc(Nc3cc(C)c(C4CCN(C(=O)CCN5CCCC5)CC4)cc3C)ncc2Cl)n[nH]1` [Compound 226, 1-(4-(4-(5-chloro-4-(5-methyl-1H-pyrazol-3-ylamino)pyrimidin-2-ylamino)-2,5-dimethylphenyl)piperidin-1-yl)-3-(pyrrolidin-1-yl)propan-1-one], 7.21. `Cc1cc(Nc2nc(Nc3cc(C)c(C4CCN(C)CC4)cc3C)ncc2Cl)n[nH]1` [Compound 6, 5-chloro-N2-(2,5-dimethyl-4-(1-methylpiperidin-4-yl)phenyl)-N4-(5-methyl-1H-pyrazol-3-yl)pyrimidine-2,4-diamine] showed a negative logarithm of the IC50 (pIC50) of 7.82. Against the preceding compound, the pIC50 is 0.61 log units higher. Take `Cc1cc(Nc2nc(Nc3cc(C)c(C4CCN(Cc5nc(C(C)C)no5)CC4)cc3C)ncc2Cl)n[nH]1` [Compound 260, 5-chloro-N2-(4-(1-((3-isopropyl-1,2,4-oxadiazol-5-yl)methyl)piperidin-4-yl)-2,5-dimethylphenyl)-N4-(5-methyl-1H-pyrazol-3-yl)pyrimidine-2,4-diamine]: the pIC50 is 7.74. The result for `CC(=O)NCC(=O)N1CCC(c2cc(F)c(Nc3ncc(Cl)c(Nc4cc(C)[nH]n4)n3)cc2C)CC1` [Compound 107, N-(2-(4-(4-(5-chloro-4-(5-methyl-1H-pyrazol-3-ylamino)pyrimidin-2-ylamino)-5-fluoro-2-methylphenyl)piperidin-1-yl)-2-oxoethyl)acetamide] reads 7.24; that for `Cc1cc(Nc2nc(Nc3cc(C)c(C4CCN(C(=O)N(C)C)CC4)cc3F)ncc2Cl)n[nH]1` [Compound 69, 4-(4-(5-Chloro-4-(5-methyl-1H-pyrazol-3-ylamino)pyrimidin-2-ylamino)-5-fluoro-2-methylphenyl)-N,N-dimethylpiperidine-1-carboxamide], 7.96; that for `Cc1cc(Nc2nc(Nc3cc(C)c(C4CCN(CCO)CC4)cc3C)ncc2C(F)(F)F)n[nH]1` [Compound 222, 2-(4-(2,5-dimethyl-4-(4-(5-methyl-1H-pyrazol-3-ylamino)-5-(trifluoromethyl)pyrimidin-2-ylamino)phenyl)piperidin-1-yl)ethanol], 7.42. For `CCc1noc(CN2CCC(c3cc(C)c(Nc4ncc(Cl)c(Nc5cc(C)[nH]n5)n4)cc3C)CC2)n1` [Compound 303, 5-chloro-N2-(4-(1-((3-ethyl-1,2,4-oxadiazol-5-yl)methyl)piperidin-4-yl)-2,5-dimethylphenyl)-N4-(5-methyl-1H-pyrazol-3-yl)pyrimidine-2,4-diamine] the value was 8.22; for `Cc1cc(Nc2nc(Nc3cc(C)c(C4CCN(C)CC4)cc3OC(C)C)ncc2C)n[nH]1` [Compound 5, N2-(2-isopropoxy-5-methyl-4-(1-methylpiperidin-4-yl)phenyl)-5-methyl-N4-(5-methyl-1H-pyrazol-3-yl)pyrimidine-2,4-diamine], 6.09. The result for `Cc1cc(Nc2nc(Nc3cc(C)c(C4CCN(CC(N)=O)CC4)cc3C)ncc2C(F)(F)F)n[nH]1` [Compound 202, 2-(4-(2,5-dimethyl-4-(4-(5-methyl-1H-pyrazol-3-ylamino)-5-(trifluoromethyl)pyrimidin-2-ylamino)phenyl)piperidin-1-yl)acetamide] reads 7.70. For `Cc1cc(Nc2nc(Nc3cc(C)c(C4CCN(CC(O)C(F)(F)F)CC4)cc3F)ncc2Cl)n[nH]1` (stereo not shown) [Compound 30, 3-(4-(4-(5-chloro-4-(5-methyl-1H-pyrazol-3-ylamino)pyrimidin-2-ylamino)-5-fluoro-2-methylphenyl)piperidin-1-yl)-1,1,1-trifluoropropan-2-ol], the pIC50 was 7.15. The result for `CNC(=O)CN1CCC[C@H](c2cc(C)c(Nc3ncc(Cl)c(Nc4cc(C)[nH]n4)n3)cc2C)C1` (single isomer, unassigned) [Compound 207] reads 7.59. On to `Cc1cc(Nc2nc(Nc3cc(C)c(C4CCN(C(=O)CN5CCN(C)CC5)CC4)cc3F)ncc2Cl)n[nH]1` [Compound 105, 1-(4-(4-(5-chloro-4-(5-methyl-1H-pyrazol-3-ylamino)pyrimidin-2-ylamino)-5-fluoro-2-methylphenyl)piperidin-1-yl)-2-(4-methylpiperazin-1-yl)ethanone], for which the pIC50 is 7.29. `Cc1cc(Nc2nc(Nc3cc(C4CCN(CCC(F)(F)F)CC4)c(F)cc3C)ncc2Cl)n[nH]1` [Compound 28, 5-chloro-N2-(4-fluoro-2-methyl-5-(1-(3,3,3-trifluoropropyl)piperidin-4-yl)phenyl)-N4-(5-methyl-1H-pyrazol-3-yl)pyrimidine-2,4-diamine] gave a pIC50 of 5.26. For `Cc1cc(Nc2ncc(Cl)c(N[C@@H]3CCCCNC3=O)n2)c(F)cc1C1CCN(C)CC1` (single isomer, unassigned) [Compound 11], the pIC50 is 7.19. With `Cc1cc(Nc2nc(Nc3cc(C)c(C4CCN(C(=O)[C@]5(C)CCCN5)CC4)cc3F)ncc2Cl)n[nH]1` [Compound 138, (S)-(4-(4-(5-chloro-4-(5-methyl-1H-pyrazol-3-ylamino)pyrimidin-2-ylamino)-5-fluoro-2-methylphenyl)piperidin-1-yl)(2-methylpyrrolidin-2-yl)methanone], the pIC50 was 7.04. On to `Cc1cc(Nc2nc(Nc3cc(Cl)c(C4CCN(CCC(F)(F)F)CC4)cc3C)ncc2Cl)n[nH]1` [Compound 27, 5-chloro-N2-(5-chloro-2-methyl-4-(1-(3,3,3-trifluoropropyl)piperidin-4-yl)phenyl)-N4-(5-methyl-1H-pyrazol-3-yl)pyrimidine-2,4-diamine], for which the pIC50 was 7.36.

With `Cc1cc(Nc2nc(Nc3cc(C)c(C4CCN([C@H](C)C(N)=O)CC4)cc3C)ncc2Cl)n[nH]1` [Compound 167, (R)-2-(4-(4-(5-chloro-4-(5-methyl-1H-pyrazol-3-ylamino)pyrimidin-2-ylamino)-2,5-dimethylphenyl)piperidin-1-yl)propanamide], the pIC50 was 8.22. For `Cc1cc(Nc2nc(Nc3cc(C)c(C4CCN(CC(O)C(F)(F)F)CC4)cc3C)ncc2Cl)n[nH]1` (stereo not shown) [Compound 29, 3-(4-(4-(5-chloro-4-(5-methyl-1H-pyrazol-3-ylamino)pyrimidin-2-ylamino)-2,5-dimethylphenyl)piperidin-1-yl)-1,1,1-trifluoropropan-2-ol] the value was 7.64; for `Cc1cc(Nc2nc(Nc3cc(C)c(C4CCN(CCC(N)=O)CC4)cc3C)ncc2Cl)n[nH]1` [Compound 236, 3-(4-(4-(5-Chloro-4-(5-methyl-1H-pyrazol-3-ylamino)pyrimidin-2-ylamino)-2,5-dimethylphenyl)piperidin-1-yl)propanamide], 7.23. The compound `Cc1cc(Nc2nc(Nc3cc(C)c(C4CCCCN4C(=O)CN(C)C)cc3C)ncc2Cl)n[nH]1` (stereo not shown) [Compound 83, 1-(2-(4-(5-chloro-4-(5-methyl-1H-pyrazol-3-ylamino)pyrimidin-2-ylamino)-2,5-dimethylphenyl)piperidin-1-yl)-2-(dimethylamino)ethanone] had a pIC50 of 7.89.

For `Cc1cc(Nc2nc(Nc3cc(C)c(C4CCCN(C[C@H](O)C(F)(F)F)C4)cc3C)ncc2Cl)n[nH]1` (stereo partly drawn) [Compound 201, (2S)-3-(3-(4-(5-chloro-4-(5-methyl-1H-pyrazol-3-ylamino)pyrimidin-2-ylamino)-2,5-dimethylphenyl)piperidin-1-yl)-1,1,1-trifluoropropan-2-ol], the pIC50 was 7.34. The result for `Cc1ccc(N2CCC(c3cc(F)c(Nc4ncc(Cl)c(Nc5cc(C)[nH]n5)n4)cc3C)CC2)nn1` [Compound 277, 5-Chloro-N2-(2-fluoro-5-methyl-4-(1-(6-methylpyridazin-3-yl)piperidin-4-yl)phenyl)-N4-(5-methyl-1H-pyrazol-3-yl)pyrimidine-2,4-diamine] reads 7.01; that for `CNC(=O)CN1CCC(c2cc(C)c(Nc3ncc(Cl)c(Nc4cc(C)[nH]n4)n3)cc2OC)CC1` [Compound 46, 2-(4-(4-(5-chloro-4-(5-methyl-1H-pyrazol-3-ylamino)pyrimidin-2-ylamino)-2-methoxy-5-methylphenyl)piperidin-1-yl)-N-methylacetamide], 7.89; that for `Cc1cc(Nc2nc(Nc3cc(C)c(C4CCCN(CC(N)=O)C4)cc3C)ncc2Cl)n[nH]1` (stereo not shown) [Compound 41, 2-(3-(4-(5-chloro-4-(5-methyl-1H-pyrazol-3-ylamino)pyrimidin-2-ylamino)-2,5-dimethylphenyl)piperidin-1-yl)acetamide], 7.59.
